# In article PMC7822874, “Chemoprotective antimalarials identified through quantitative high-throughput screening of Plasmodium blood and liver stage parasites” (Scientific Reports, 2021):
# Where “and” joins values, the source holds several entries; their conditions need not be identical. Identical values can stand only once. Like-named read-outs stand apart in the source and are kept apart here.
# Key:
# [1] = test system: T1, Plasmodium falciparum Dd2-attB-ScDHODH (transgenic line expressing yeast DHODH), asexual blood stages; test: organism not typed; parameters: replicate k of 3 (each line is one of three independent assays; the three lines of one compound and parasite line follow each other)
# T1 construct: Dd2-attB-ScDHODH, the transgenic line that expresses yeast DHODH
# Method in brief: (§1)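 Three independent runs, compound subset only; parental vs ScDHODH line compared by two-sided Student's t-test.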
# [2] = test system: T2, Plasmodium falciparum Dd2-attB (parental line), asexual blood stages; test: microbe, parasite or virus in culture; parameters: species or system P. falciparum Dd2-attB in human erythrocytes; SYBR Green-I proliferation assay, Dd2-attB parental line, asexual blood stages; conditions: Plasmodium falciparum, DD2, Erythrocyte, 72 h, read-out: Calculated / Average Log AC50 (M), mean of replicates, 72 h (converted)
# T2 construct: Dd2-attB, the isogenic parental line
# [3] = test system: T2, Plasmodium falciparum Dd2-attB (parental line), asexual blood stages; test: microbe, parasite or virus in culture; parameters: replicate k of 3 (each line is one of three independent assays; the three lines of one compound and parasite line follow each other); conditions: n = 1; for Individual replicates / Log AC50 (M): 72 h; for AC50: Plasmodium falciparum, DD2, 72 h, read-out: Individual replicates / Log AC50 (converted)
# Method in brief: as §1
# [4] = 72 h; n = 1; read-out: Individual replicates / Log AC50 (converted)
SMILES,AC50 [2],also measured
Oc1ccc(COCc2ccccc2)c2cccnc12 [MLS000034722-02],1.13e-05 M,"Individual replicates / Log AC50 (M) ([1]; 72 h; n = 1): -4.8486 Log AC50 (M); AC50 [1, 4]: 14.2 µM; Individual replicates / Log AC50 (M) [3]: -4.8986 Log AC50 (M); AC50 [3]: 8.94 µM"
O=C(NC1=CC(=O)c2ccccc2C1=O)c1ccccc1 [MLS002693850-02],3.56e-06 M,"Individual replicates / Log AC50 (M) ([1]; 72 h, n = 1): -5.5486 Log AC50 (M) and -5.0986 Log AC50 (M); Individual replicates / Log AC50 (M) [3]: -5.5986 Log AC50 (M) (2×) and -5.1486 Log AC50 (M)"
Oc1ccc(CNc2ccccc2F)c2cccnc12 [NCGC00031503-02],1.22e-05 M,"Individual replicates / Log AC50 (M) ([1]; 72 h, n = 1): -4.7486 Log AC50 (M) and -4.7986 Log AC50 (M); AC50 [1, 4]: 20 µM; Individual replicates / Log AC50 (M) [3]: -4.9986 Log AC50 (M); AC50 [3]: 17.8 µM"
CCc1cccc(C)c1Nc1c(-c2ccc(N(C)C)cc2)nc2ncccn12 [NCGC00107648-03],1.93e-05 M,AC50 [3]: 15.9 µM
COc1ccc(CNC(=O)c2nc([S+](=O)([O-])Cc3ccccc3)ncc2Cl)cc1 [NCGC00117170-03],1.31e-05 M,AC50 [3]: 8.94 µM
CCOc1ccc(-c2[nH]c3c(C#N)cnn3c2NC2CCCCC2)cc1 [NCGC00119971-02],1.85e-05 M,AC50 [3]: 15.9 µM
CC1Cc2cc([S+](=O)([O-])NCc3ccc(N(C)C)cc3)ccc2N1C(=O)C1CCC1 (stereo not shown) [NCGC00124605-03],1.47e-05 M,"AC50 [1, 4]: 15.9 µM"
Oc1ccc(COC2CCN(Cc3ccccc3)C2)c2cccnc12 (stereo not shown) [NCGC00183382-01],7.97e-06 M,Individual replicates / Log AC50 (M) [3]: -5.2986 Log AC50 (M) and -5.1986 Log AC50 (M) and -4.7986 Log AC50 (M)
O=C(O)c1ccc(O)c2ncc(N3CCOCC3)cc12 [NCGC00241036-03],1.65e-05 M,Individual replicates / Log AC50 (M) [3]: -4.8486 Log AC50 (M)
O=C(O)c1ccc(O)c2ncc(NC3CCNCC3)cc12 [NCGC00241037-01],1.72e-05 M,AC50 [3]: 14.2 µM
O=C(O)c1ccc(O)c2ncc(N3CCN(CCc4ccncc4)CC3)cc12 [NCGC00247761-01],1e-05 M,AC50 [3]: 8.94 µM
CN(C)CCCNC(=O)c1cccc(-c2cc(O)c3nccc(C(=O)O)c3c2)c1 [NCGC00247762-01],2.25e-05 M,–
CN(C)CCCN1CCCN(C(=O)c2cccc(-c3cc(O)c4ncccc4c3)c2)C1 [NCGC00247763-01],1.93e-05 M,–
O=C(O)c1ccc(O)c2ncc(N3CCC(N4CCOCC4)CC3)cc12 [NCGC00249380-01],1.47e-05 M,"AC50 [1, 4]: 17.8 µM"
Cc1cccc(CN2CCN(c3cnc4c(O)ccc(C(=O)O)c4c3)CC2)c1 [NCGC00249381-01],1.78e-05 M,AC50 [3]: 15.9 µM
COC(=O)c1ccnc(-c2cc(C(=O)NCCc3ccccc3)ccn2)c1 [NCGC00351541-01],2.16e-05 M,–
O=C(O)CCNc1cc(N2CCc3ccccc3CC2)nc(-c2cccnc2)n1 [NCGC00351549-01],2.08e-05 M,"AC50 [1, 4]: 15.9 µM"
CCOC(=O)c1ccnc(CNCC(=O)N(CC)CCN(C)C)c1 [NCGC00371443-05],1.47e-07 M,–
Cn1cnc(-c2nccc3c(O)nc(OCCCC(F)(F)F)nc23)c1 [NCGC00381768-02],2.08e-05 M,–
CCc1c(C)[nH]c2c(-c3cnn(-c4cc(CO)ccn4)c3)cnn2c1=O [NCGC00387307-02],4.84e-08 M,–
COC(=O)c1ccc(N(CCN2CCC(F)(F)CC2)c2ccc(F)cc2)cn1 [NCGC00390009-01],1.53e-05 M,–
O=C(O)c1ccnc2cc(C(OCCN3CCC(F)(F)CC3)c3ccccc3Cl)[nH]c12 (stereo not shown) [NCGC00414992-02],1.53e-05 M,–
COC(=O)c1ccnc(-c2cn(C)cn2)c1NC(=O)Cc1ccc(Cl)cc1 [NCGC00420786-01],1.42e-05 M,Individual replicates / Log AC50 (M) [3]: -5.0486 Log AC50 (M) and -4.7486 Log AC50 (M); AC50 [3]: 17.8 µM
C=CC(=O)N1CCCN(c2cc(NCCC(=O)O)nc(-c3ccccn3)n2)CC1 [NCGC00420854-01],2.16e-05 M,–
COC(=O)CCNc1cc(N2CCCN(C(=O)C(C#N)=C(C)C)CC2)nc(-c2ccccn2)n1 [NCGC00420856-01],1.42e-05 M,–

SMILES,AC50 [2],also measured
C=C[S+](=O)([O-])N1CCCN(c2cc(NCCC(=O)O)nc(-c3ccccn3)n2)CC1 [NCGC00420874-01],2.25e-05 M,–
CC(C)=C(C#N)C(=O)N1CCCN(c2cc(NCCC(=O)O)nc(-c3ccccn3)n2)CC1 [NCGC00420877-01],1.59e-08 M,–
CN1CCCC1CCOC(c1cc2nccc(C(=O)O)c2[nH]1)c1ccccc1Cl (stereo not shown) [NCGC00421826-01],6.58e-06 M,–
O=C(O)c1ccnc2cc(C(OCCCN3CCCC3)c3ccccc3Cl)[nH]c12 (stereo not shown) [NCGC00421827-01],4.48e-06 M,–
Cn1ccnc1CCOC(c1cc2nccc(C(=O)O)c2[nH]1)c1ccccc1Cl (stereo not shown) [NCGC00421835-01],1.85e-05 M,AC50 [3]: 15.9 µM
CCOC(=O)c1cnn(-c2cc(C(N)=O)ccn2)c1-c1ccc(OC)cc1 [NCGC00421836-01],6.33e-06 M,–
CCOC(=O)c1ccnc(-n2ncc(C(=O)OCC)c2-c2ccc(OC)cc2)c1 [NCGC00421879-01],1.22e-05 M,–
O=C(NC1CCN(c2cc(-c3ccc(Cl)cc3)n[nH]2)C1)c1ccccc1 (stereo not shown) [NCGC00437928-03],1.85e-05 M,"AC50 [1, 4]: 12.6 µM"
CCN(Cc1noc(CC(C)C)n1)C(=O)c1cnc(-c2ccccn2)nc1O [NCGC00438951-02],1.85e-05 M,–
CN1CCCCC1CCOC(c1cc2nccc(C(=O)O)c2[nH]1)c1ccccc1Cl (stereo not shown) [NCGC00479006-01],1.93e-05 M,–
O=C(O)c1ccnc2cc(C(OCCN3CCCCC3)c3ccccc3Cl)[nH]c12 (stereo not shown) [NCGC00479257-01],1.89e-05 M,–
O=C(O)c1ccnc2cc(C(OCCCC3CCCCN3)c3ccccc3Cl)[nH]c12 (stereo not shown) [NCGC00479271-01],8.94e-06 M,–
CC(OCCN1CCCCC1)c1cnn(-c2cc(C(=O)O)ccn2)c1-c1cccc(-c2ccccc2)c1 (stereo not shown) [NCGC00481287-01],1.36e-05 M,AC50 [3]: 15.9 µM
CN1CCCC1CCOC(c1cccc(-c2ccccc2)c1)c1cc2nccc(C(=O)O)c2s1 (stereo not shown) [NCGC00481397-01],1.42e-05 M,–
O=C(O)c1ccnc(-n2ncc(C(OCCN3CCCCC3)c3ccccc3)c2-c2ccccc2Cl)c1 (stereo not shown) [NCGC00483104-01],1.36e-05 M,–
O=C(O)c1ccnc(-n2ncc(C(OCCN3CCCCC3)c3ccccc3Cl)c2-c2ccccc2Cl)c1 (stereo not shown) [NCGC00487469-01],1.85e-05 M,–
O=C(O)c1ccnc(-n2ncc(C(OCCN3CCCCC3)c3ccccc3)c2-c2ccccc2)c1 (stereo not shown) [NCGC00488202-01],2.12e-05 M,–
CC(C)(C)c1cc(N2CCC(NC(=O)c3ccccc3)C2)n[nH]1 (stereo not shown) [NCGC00488845-01],2.25e-05 M,–
O=C(N[C@H]1CCN(c2cc(-c3ccc(Cl)cc3)[nH]n2)C1)c1ccccc1 [NCGC00489097-01],1.19e-05 M,AC50 [3]: 6.33 µM
O=C(N[C@H]1CC(=O)N(c2cc(-c3ccccc3)[nH]n2)C1=O)c1ccccc1 [NCGC00489852-01],7.1e-10 M,–
O=C(NC1CCN(C(=O)c2cc(-c3ccccc3)n[nH]2)C1)c1ccccc1 (stereo not shown) [NCGC00492307-01],1.59e-05 M,"AC50 [1, 4]: 14.2 µM"
Cc1nn2c(c1-c1ccnn1C(C)C)N(CC1CC1)CCC2 [NCGC00499721-01],1.59e-05 M,–
Cc1cccc(CN2CCCn3nc(C)c(-c4ccnn4C(C)C)c32)n1 [NCGC00499722-01],1.65e-07 M,–
Cc1nn2c(c1-c1ccnn1C(C)C)N(Cc1ccccc1)CCC2 [NCGC00500003-01],1.31e-05 M,AC50 [3]: 8.94 µM
CC(C)c1c(-c2cnn(C(C)(C)C)c2)n2ncc(C#N)c2[nH]c1=O [NCGC00500019-01],1.53e-05 M,–
